Active and inactive are the calls of the source. The calls are words filed in the database; no cut-off is given here.
Legend:
Mus musculus [1] = assay: (§1) Protection against alcohol-induced motor impairment in C57BL/6J mouse model assessed as short recovery time by measuring latency to falling off at 1 mg/kg, po preadministered with compound every 24 hrs for 3 times followed by alcohol administration 30 mins post last dose and further treated with compound for 3 days followed by alcohol administration 30 mins post last dose and measured at 2 to 20 mins by rotarod test; format: functional, organism-based; details: time 8702-8720 min
Mus musculus [2] = assay: (§2) Protection against alcoholic liver disease in NIAAA C57BL/6J mouse model assessed as reduction in liver IL-1beta mRNA level at 1 to 2.5 mg/kg, po preadministered with 1 to 4 % of alcohol for 10 days with subsequent compound addition from day 6 to 11 and further administered with 31.25 % alcohol on day 11 and measured after 9 hrs by RT-qPCR analysis; format: functional, organism-based; details: dose 1-2.5 mg/kg, time 5.0 day
Mus musculus [3] = assay: Protection against alcohol-induced sedation in C57BL/6J mouse model assessed as reduction in sleep time at 1 to 2.5 mg/kg, po preadministered with compound every 24 hrs for 3 times followed by alcohol administration 30 mins post last dose; format: functional, organism-based; details: dose 1-2.5 mg/kg, time 72.5 hrs
Mus musculus [4] = assay: as §2, with “serum IL-6” for “liver IL-1beta mRNA”, “ELISA” for “RT-qPCR analysis”; format: functional, organism-based; details: dose 1-2.5 mg/kg, time 5.0 day
[5] = Selectivity ratio for inhibition of PDE9A (unknown origin) using FAM-cyclic-3',5'-AMP as substrate to inhibition of PDE4B1 (unknown origin) using FAM-cyclic-3',5'-AMP as substrate
Mus musculus [6] = assay: as §1, with “2.5” for “1”; format: functional, organism-based; details: time 8702-8720 min
[7] = Drug concentration in Sprague-Dawley rat brain at 10 mg/kg, po administered as single dose for 2 hrs by LC-MS analysis; format: ADME, organism-based; details: read-out: Ct
[8] = Oral bioavailability in Sprague-Dawley rat at 10 mg/kg measured after 24 hrs by LC-MS analysis; format: ADME, organism-based; details: in vivo
Mus musculus [9] = assay: as §2, with “decrease” for “reduction”, “index” for “IL-1beta mRNA level”, “at” for “at 1 to”, “hrs” for “hrs by RT-qPCR analysis”; format: functional, organism-based; details: time 5.0 day
[10] = Selectivity ratio for inhibition of PDE3B (unknown origin) using FAM-cyclic-3',5'-AMP as substrate to inhibition of PDE4B1 (unknown origin) using FAM-cyclic-3',5'-AMP as substrate
[11] = target: 3',5'-cyclic-AMP phosphodiesterase 4B (Homo sapiens, UniProt Q07343); assay: Inhibition of PDE4B1 (unknown origin) using FAM-cyclic-3',5'-AMP as substrate incubated for 1 hrs by fluorescence polarization based IMAP assay
[12] = target: High affinity cGMP-specific 3',5'-cyclic phosphodiesterase 9A (Homo sapiens) (UniProt O76083); assay: Inhibition of PDE9A (unknown origin) using FAM-cyclic-3',5'-AMP as substrate at 10 uM incubated for 1 hrs by fluorescence polarization based IMAP assay relative to control
Mus musculus [13] = assay: as §1, with “increase in distance travelled” for “short recovery time by measuring latency to falling off”, “1 to 2.5” for “1”, “open field” for “rotarod”; format: functional, organism-based; details: dose 1-2.5 mg/kg, time 8702-8720 min
Mus musculus [14] = assay: as §2, with “serum TNF-alpha” for “liver IL-1beta mRNA”, “ELISA” for “RT-qPCR analysis”; format: functional, organism-based; details: dose 1-2.5 mg/kg, time 5.0 day
SH-SY5Y = assay: Protection against alcohol-induced cytotoxicity in human SH-SY5Y cells assessed as increase in cell viability at 0.25 to 1 uM preincubated with compound for 1 hrs followed by ethanol administration and measured after 24 hrs by CCK8 assay; format: functional, cell-based; details: dose 0.25-1 µM, time 25.0 hrs
[15] = Drug concentration in Sprague-Dawley rat plasma at 10 mg/kg, po administered as single dose for 2 hrs by LC-MS analysis; format: ADME, organism-based
[16] = Acute toxicity in C57BL/6J mouse assessed as druggability at 1 g/Kg, po administered for 14 days; format: organism-based; details: in vivo, 1000 mg/kg, 336 h, time 14 day
Mus musculus [17] = assay: Protection against alcohol exposure-induced anxiety like behavior in C57BL/6J mouse model assessed as increase in center time at 1 to 2.5 mg/kg, po pre-trained with alcohol and water for 42 days with subsequent compound addition from day 22 to day 42 followed by 3.5 hrs of darkness and compound administration for 30 mins followed by water replacement with alcohol for 4 hrs and measured 24 hrs after alcohol withdrawal by open field test; format: functional, organism-based; details: dose 1-2.5 mg/kg
[18] = target: 3',5'-cyclic-AMP phosphodiesterase 4D (Homo sapiens, UniProt Q08499); assay: Inhibition of PDE4D7 (unknown origin) using FAM-cyclic-3',5'-AMP as substrate at 100 nM incubated for 1 hrs by fluorescence polarization based IMAP assay relative to control
[19] = Selectivity ratio for inhibition of PDE7A (unknown origin) using FAM-cyclic-3',5'-AMP as substrate to inhibition of PDE4D7 (unknown origin) using FAM-cyclic-3',5'-AMP as substrate
Mus musculus [20] = assay: as §2, with “improvement of steatosis” for “reduction in liver IL-1beta mRNA level”, “H&E staining based light microscopic” for “RT-qPCR”; format: functional, organism-based; details: dose 1-2.5 mg/kg, time 5.0 day
Mus musculus [21] = assay: Protection against alcohol use disorder in C57BL/6J mouse model assessed as decrease in alcohol intake at 1 to 2.5 mg/kg, po pre-trained with alcohol and water for 42 days with subsequent compound addition from day 22 to day 42 followed by 3.5 hrs of darkness and compound administration for 30 mins followed by water replacement with alcohol for 4 hrs on day 46 by Drink-in-Dark test; format: functional, organism-based; details: dose 1-2.5 mg/kg, time 23.0 day
[22] = Acute toxicity in C57BL/6J mouse assessed as poisoning symptoms at 1 g/Kg, po administered for 14 days; format: organism-based; details: in vivo, 1000 mg/kg, 336 h, time 14 day
Mus musculus [23] = assay: as §2, with “improvement of steatosis” for “reduction in liver IL-1beta mRNA level”, “Oil Red O staining based light microscopic” for “RT-qPCR”; format: functional, organism-based; details: dose 1-2.5 mg/kg, time 5.0 day
[24] = AUC (0 to t) in Sprague-Dawley rat at 10 mg/kg, po measured after 24 hrs by LC-MS analysis; format: ADME, organism-based; details: in vivo
[25] = target: High affinity cAMP-specific and IBMX-insensitive 3',5'-cyclic phosphodiesterase 8A (Homo sapiens) (UniProt O60658); assay: Inhibition of PDE8A1 (unknown origin) using FAM-cyclic-3',5'-AMP as substrate at 10 uM incubated for 1 hrs by fluorescence polarization based IMAP assay relative to control
Mus musculus [26] = assay: as §1, with “decrease in resting” for “short recovery”, “time” for “time by measuring latency to falling off”, “1 to 2.5” for “1”, “open field” for “rotarod”; format: functional, organism-based; details: dose 1-2.5 mg/kg, time 8702-8720 min
Mus musculus [27] = assay: Protection against alcohol use disorder in C57BL/6J mouse model assessed as decrease in alcohol preference at 1 to 2.5 mg/kg, po pre-trained with alcohol and water for 42 days with subsequent compound addition on day 22 and measured after 3 weeks by two-bottle choice test; format: functional, organism-based; details: dose 1-2.5 mg/kg
[28] = target: cGMP-inhibited 3',5'-cyclic phosphodiesterase 3B (Homo sapiens) (UniProt Q13370); assay: Inhibition of PDE3B (unknown origin) using FAM-cyclic-3',5'-AMP as substrate at 10 uM incubated for 1 hrs by fluorescence polarization based IMAP assay relative to control
Chain of cGMP-inhibited 3',5'-cyclic phosphodiesterase 3B (Homo sapiens) (Q13370 whole entry, looked up): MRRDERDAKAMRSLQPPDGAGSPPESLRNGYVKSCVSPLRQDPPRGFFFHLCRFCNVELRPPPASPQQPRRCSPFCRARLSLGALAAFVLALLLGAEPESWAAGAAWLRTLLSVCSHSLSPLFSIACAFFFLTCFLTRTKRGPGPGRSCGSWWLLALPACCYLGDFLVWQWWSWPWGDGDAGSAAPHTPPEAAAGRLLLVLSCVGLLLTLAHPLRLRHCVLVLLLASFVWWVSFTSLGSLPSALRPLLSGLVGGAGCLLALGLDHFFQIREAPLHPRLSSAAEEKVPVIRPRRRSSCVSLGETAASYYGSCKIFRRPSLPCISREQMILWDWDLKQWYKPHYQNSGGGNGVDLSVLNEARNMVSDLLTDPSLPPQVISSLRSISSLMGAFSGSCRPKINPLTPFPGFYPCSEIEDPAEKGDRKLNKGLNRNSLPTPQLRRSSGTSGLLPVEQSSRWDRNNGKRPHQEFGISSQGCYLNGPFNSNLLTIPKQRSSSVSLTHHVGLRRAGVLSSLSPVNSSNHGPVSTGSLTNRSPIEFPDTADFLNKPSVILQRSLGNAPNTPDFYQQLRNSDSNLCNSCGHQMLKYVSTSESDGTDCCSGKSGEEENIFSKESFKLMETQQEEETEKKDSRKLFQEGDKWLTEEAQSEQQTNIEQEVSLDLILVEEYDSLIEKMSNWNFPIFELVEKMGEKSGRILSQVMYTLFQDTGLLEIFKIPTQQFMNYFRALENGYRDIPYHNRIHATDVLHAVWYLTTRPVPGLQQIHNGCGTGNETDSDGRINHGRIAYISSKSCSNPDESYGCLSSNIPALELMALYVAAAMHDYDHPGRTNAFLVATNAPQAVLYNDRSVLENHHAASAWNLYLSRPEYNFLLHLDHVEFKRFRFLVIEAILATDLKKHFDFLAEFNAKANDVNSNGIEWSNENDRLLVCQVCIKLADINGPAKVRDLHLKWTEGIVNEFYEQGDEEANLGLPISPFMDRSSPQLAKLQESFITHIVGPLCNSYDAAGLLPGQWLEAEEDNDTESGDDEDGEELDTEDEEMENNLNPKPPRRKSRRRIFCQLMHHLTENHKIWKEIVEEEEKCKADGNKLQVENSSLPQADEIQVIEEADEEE

Chain of 3',5'-cyclic-AMP phosphodiesterase 4D (Q08499 whole entry): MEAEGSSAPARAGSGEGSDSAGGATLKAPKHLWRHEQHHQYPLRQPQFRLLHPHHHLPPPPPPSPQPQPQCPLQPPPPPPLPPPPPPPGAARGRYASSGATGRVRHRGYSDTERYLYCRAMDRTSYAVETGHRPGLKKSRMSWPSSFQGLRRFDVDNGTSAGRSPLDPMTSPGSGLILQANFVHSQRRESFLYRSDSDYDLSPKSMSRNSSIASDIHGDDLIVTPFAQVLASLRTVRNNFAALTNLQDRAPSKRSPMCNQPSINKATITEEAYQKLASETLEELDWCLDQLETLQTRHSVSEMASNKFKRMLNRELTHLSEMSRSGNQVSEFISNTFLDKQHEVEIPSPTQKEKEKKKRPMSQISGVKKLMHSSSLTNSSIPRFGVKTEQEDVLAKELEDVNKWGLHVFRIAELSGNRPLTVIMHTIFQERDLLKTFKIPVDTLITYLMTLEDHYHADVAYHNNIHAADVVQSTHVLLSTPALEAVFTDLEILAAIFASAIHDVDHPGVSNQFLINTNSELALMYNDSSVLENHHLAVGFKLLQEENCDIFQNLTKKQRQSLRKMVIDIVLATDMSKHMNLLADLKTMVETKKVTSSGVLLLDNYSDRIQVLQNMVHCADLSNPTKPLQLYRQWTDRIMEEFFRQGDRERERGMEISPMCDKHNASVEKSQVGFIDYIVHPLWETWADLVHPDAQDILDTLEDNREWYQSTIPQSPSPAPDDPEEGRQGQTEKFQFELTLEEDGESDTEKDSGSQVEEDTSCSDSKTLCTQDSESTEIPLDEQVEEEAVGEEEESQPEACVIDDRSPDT
Chain of High affinity cAMP-specific and IBMX-insensitive 3',5'-cyclic phosphodiesterase 8A (Homo sapiens) (O60658 whole entry): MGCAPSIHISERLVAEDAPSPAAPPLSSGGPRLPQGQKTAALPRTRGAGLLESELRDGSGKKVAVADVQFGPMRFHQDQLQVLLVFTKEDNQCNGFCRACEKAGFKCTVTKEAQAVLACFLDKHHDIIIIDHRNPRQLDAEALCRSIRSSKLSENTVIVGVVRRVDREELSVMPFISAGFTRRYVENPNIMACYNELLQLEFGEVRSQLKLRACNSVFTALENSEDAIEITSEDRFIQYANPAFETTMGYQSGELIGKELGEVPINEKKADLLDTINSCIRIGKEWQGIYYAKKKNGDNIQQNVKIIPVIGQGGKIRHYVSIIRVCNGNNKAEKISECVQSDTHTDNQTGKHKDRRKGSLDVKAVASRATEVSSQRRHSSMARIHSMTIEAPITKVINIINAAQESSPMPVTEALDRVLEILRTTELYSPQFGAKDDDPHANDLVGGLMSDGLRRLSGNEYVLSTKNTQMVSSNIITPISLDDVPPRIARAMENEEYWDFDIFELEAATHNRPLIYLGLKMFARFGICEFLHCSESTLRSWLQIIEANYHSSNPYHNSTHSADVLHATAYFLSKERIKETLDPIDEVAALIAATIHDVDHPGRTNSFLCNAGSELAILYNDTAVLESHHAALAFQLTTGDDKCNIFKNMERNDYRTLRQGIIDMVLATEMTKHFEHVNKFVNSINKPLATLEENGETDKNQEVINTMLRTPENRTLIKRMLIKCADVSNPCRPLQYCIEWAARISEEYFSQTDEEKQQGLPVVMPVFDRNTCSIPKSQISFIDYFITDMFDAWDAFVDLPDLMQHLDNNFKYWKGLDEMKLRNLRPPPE
Chain of 3',5'-cyclic-AMP phosphodiesterase 4B (Q07343 whole entry): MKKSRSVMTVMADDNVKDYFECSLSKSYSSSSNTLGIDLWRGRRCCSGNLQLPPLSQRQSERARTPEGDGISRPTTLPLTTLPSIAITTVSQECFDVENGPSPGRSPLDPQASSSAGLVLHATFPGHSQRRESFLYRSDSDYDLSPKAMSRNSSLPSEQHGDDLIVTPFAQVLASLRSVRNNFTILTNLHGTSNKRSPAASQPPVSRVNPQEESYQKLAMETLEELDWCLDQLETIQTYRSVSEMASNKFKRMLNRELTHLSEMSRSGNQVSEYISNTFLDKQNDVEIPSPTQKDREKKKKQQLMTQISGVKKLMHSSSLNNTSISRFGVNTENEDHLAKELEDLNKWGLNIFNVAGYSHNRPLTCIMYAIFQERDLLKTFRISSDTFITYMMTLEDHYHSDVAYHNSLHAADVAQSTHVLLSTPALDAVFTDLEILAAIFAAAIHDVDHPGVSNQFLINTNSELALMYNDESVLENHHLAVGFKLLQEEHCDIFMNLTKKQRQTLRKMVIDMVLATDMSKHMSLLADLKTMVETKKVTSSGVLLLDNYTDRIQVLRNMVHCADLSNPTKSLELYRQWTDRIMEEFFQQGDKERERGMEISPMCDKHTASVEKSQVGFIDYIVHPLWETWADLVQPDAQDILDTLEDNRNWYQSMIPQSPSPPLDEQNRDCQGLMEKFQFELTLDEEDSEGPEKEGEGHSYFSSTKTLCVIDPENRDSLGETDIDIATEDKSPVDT
Chain of High affinity cGMP-specific 3',5'-cyclic phosphodiesterase 9A (Homo sapiens) (O76083 whole entry): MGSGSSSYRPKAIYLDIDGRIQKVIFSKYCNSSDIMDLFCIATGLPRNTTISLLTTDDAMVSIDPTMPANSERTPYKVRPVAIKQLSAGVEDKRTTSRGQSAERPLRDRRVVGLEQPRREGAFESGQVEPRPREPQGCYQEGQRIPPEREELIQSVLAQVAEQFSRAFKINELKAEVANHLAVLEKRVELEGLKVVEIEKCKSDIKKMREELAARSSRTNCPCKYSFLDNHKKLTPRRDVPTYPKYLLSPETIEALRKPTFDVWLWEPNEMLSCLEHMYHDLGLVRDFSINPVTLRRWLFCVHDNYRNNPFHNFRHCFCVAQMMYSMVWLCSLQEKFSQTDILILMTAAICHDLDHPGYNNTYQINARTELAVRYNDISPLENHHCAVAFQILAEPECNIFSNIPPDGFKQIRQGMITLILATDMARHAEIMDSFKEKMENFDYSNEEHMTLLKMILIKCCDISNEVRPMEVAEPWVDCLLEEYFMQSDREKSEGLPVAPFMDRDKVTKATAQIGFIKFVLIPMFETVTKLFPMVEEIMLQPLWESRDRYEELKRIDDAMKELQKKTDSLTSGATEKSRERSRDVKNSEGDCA

CCOc1nc(Cl)cc2c1cnn2CCCC(=O)O
Activity (Mus musculus [1]): inactive | Activity (Mus musculus [2]): Active | Activity (Mus musculus [3]): Active | Activity (Mus musculus [4]): Active | Selectivity ratio [5]: > 267 | Activity (Mus musculus [6]): Active | concentration at 2 h [7]: 441 ng/g | bioavailability [8]: 94.1% | Activity (Mus musculus [9]): Active | Selectivity ratio [10]: > 267 | IC50 [11]: 31 nM | inhibition [12]: 9% | Activity (Mus musculus [13]): Active | Activity (Mus musculus [14]): Active | Activity (SH-SY5Y): Active | concentration at 2 h [15]: 27000 ng/mL | Activity [16]: Non-Toxic | Activity (Mus musculus [17]): Active | inhibition [18]: 72% | Selectivity ratio [19]: > 267 | Activity (Mus musculus [20]): Active | Activity (Mus musculus [21]): Active | Activity [22]: Non-Toxic | Activity (Mus musculus [23]): Active | AUC(0-t) at 24 h [24]: 669 µg·h/mL | inhibition [25]: 9% | Activity (Mus musculus [26]): Active | Activity (Mus musculus [27]): Active | inhibition [28]: 10%
